What was measured:
[1] = target: hemoglobin (Homo sapiens, UniProt P68871+P69905); assay: Measurement of hemoglobin and stability of reagent (Example 9); format: physicochemical; conditions: Example 2 reagent with 1% promoter; 660 nm; FIG. 1
Protocol: By using the reagents of Example 2, measurement was performed for a standard product having a known hemoglobin concentration.
Measurement was performed by using an autoanalyzer (Hitachi autoanalyzer 7170S; manufactured by Hitachi Ltd.). 20 μl of a sample was added with 180 μl of each of the reagents, and changes in absorbance were measured at 660 nm. Water was used as a control, and differences in absorbance between the sample and the water were calculated after 5 minutes. 5-serially diluted products of the standard hemoglobin product were used as the sample.
In addition, a preservation test was performed for a reagent in which sarcosinate MN was used as a protease reaction promoter at 37° C. for 4 days. The measurement of 5.5 g/dl of the standard hemoglobin product was performed by using, as a calibrator, a 30-fold diluted product of a standard substance for HbA1c measurement (primary calibrator JDS HbA1c Lot2, manufactured by Health Care Technology Foundation, level 1, hemoglobin concentration of 135 g/L). As a result, the measurement values of the hemoglobin were 54 mAbs, 4.5 g/L before the preservation test and 50 mAbs, 4.6 g/L after the preservation test. From the results, it was assumed that the present reagent is stable for 6 months or longer under refrigeration.

[2] = test system: Neutral protease (manufactured by Toyobo Co., Ltd.); assay: Screening of protease reaction promoter (Example 1); format: biochemical; conditions: for protease reaction promoting effect (in words): judged from Table 1; for AH − AL / AH (absorbance from primary calibrator at level 4 (9.88%)) / AL (absorbance from primary calibrator at level 2 (5.38%)): 660 nm
Protocol: 1) R-1: Reagent for Protein Decomposition
2) R-2: Reagent for Glycated Amino Acid Detection
The following substances were independently used as a test sample. Note that concentrations described in parentheses each represent a final concentration of the substance in the reagent R1.
Absorbance before the addition of the reagent R-2 and 5 minutes after the addition was measured at 660 nm. […] The AH-AL shown in Table 1 is a difference obtained by subtracting absorbance AL which was obtained from the primary calibrator at level 2 (5.38%) from absorbance AH which was obtained from the primary calibrator at level 4 (9.88%). Here, if AH-AL is large, the sample is judged to have a protease reaction promoting effect. In particular, when AH-AL is 20 or more, the sample has an excellent promoting effect.

[3] = target: T1, protease (Bacillus licheniformis, UniProt P00780); assay: Effect of protease reaction promoter on glycated albumin measurement (Example 12); format: biochemical
T1 construct: purchased Sigma Aldrich Japan K.K
T1 sequence (P00780 106-379): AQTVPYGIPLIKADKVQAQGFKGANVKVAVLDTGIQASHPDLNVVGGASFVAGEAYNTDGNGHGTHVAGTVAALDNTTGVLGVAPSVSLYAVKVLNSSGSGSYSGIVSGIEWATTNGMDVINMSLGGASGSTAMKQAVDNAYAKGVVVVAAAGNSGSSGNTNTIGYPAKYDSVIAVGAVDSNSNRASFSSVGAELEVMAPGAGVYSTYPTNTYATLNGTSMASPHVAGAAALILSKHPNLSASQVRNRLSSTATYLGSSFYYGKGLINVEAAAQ
Protocol: The reagents of Example 5 were used. 240 μl of the reagent R-1 which had been incubated to 37° C. was added with 8 μl of a control plasma H (manufactured by BML Inc.); […], and absorbance thereof was measured using a dominant wavelength of 546 nm and a subwavelength of 700 nm. A reaction was initiated at 37° C., and 80 μl of the R-2 reagent was added to the mixture exactly 5 minutes after the initiation. Absorbance before the addition of the R-2 reagent and after 5 minutes of the addition was measured. In addition, measurement was performed for a blank which was prepared by using distilled water instead of the substrate solution. The change in absorbance obtained from the control substrate solution was subtracted by the change in absorbance obtained from the blank sample, to thereby calculate ΔA0. Conversion of the values was performed by simultaneous measurement for a calibrator (manufactured by Asahi Kasei Pharma Corporation) for Lucica GA and comparison of absorbance. The measurement value for albumin was obtained from a difference in absorbance which was obtained by subtracting absorbance immediately before the addition of the R-2 reagent from absorbance immediately after the addition of the sample. […]

[4] = Screening of stabilizer for colorant, MBTH-TOOS (Example 13); format: physicochemical; conditions: MBTH-TOOS, 570 nm, 37° C., additives at conc. (1%; IDA 1 mM; Zn, Al 0.1 mM; ferrocyanide 0.01 mM; sorbitol 5%; DMSO 10%)
[5] = Screening of stabilizer for colorant, DA64 (Example 13); format: physicochemical; conditions: DA-64, 750 nm, 37° C., additives at conc. (1%; IDA 1 mM; Zn, Al 0.1 mM; ferrocyanide 0.01 mM; sorbitol 5%; DMSO 10%)
Protocol: (§1) The following substances were used as test samples. Note that concentrations described in parentheses each represent a final concentration of the substance in the reagent R-1.
(§2) Tween-20 (1%), Brij35 (1%), Triton X-100 (1%), deoxycholic acid (1%), imino-diacetic acid (IDA; 1 mM), ZnSO4 (0.1 mM), AlCl3 (0.1 mM), potassium ferrocyanate (0.01 mM), sorbitol (5%), glucose (5%), sodium nitrite (2 mM), dimethylsulfoxide (DMSO; 10%) (those substances are manufactured by Wako Pure Chemical Industries, Inc.), 2-hydroxypropyl-β-cyclodextrin (2HP β CD; 0.5%, 2%, 5%) and methyl-β-cyclodextrin (M β CD; 0.5%, 2%, 5%) (those substances are manufactured by Nihon Shokuhin Kako Co., Ltd.).
(§3) 500 μl of the R-1 reagent and 500 μl of the R-2 which had been incubated to 37° C. were mixed. The mixture was incubated to 37° C. for 2 minutes, and absorbance thereof (A0) was measured. The mixture was added with 10 μl of 500 μM hydrogen peroxide or distilled water. The whole was incubated to 37° C., and absorbance exactly 5 minutes after the addition of hydrogen peroxide (A1) was measured, to calculate a change in absorbance ΔA (A1-A0). The absorbance was measured using a wavelength of 750 nm when DA64 was used as the colorant, a wavelength of 660 nm when DA67 was used as the colorant, and a wavelength of 570 nm when 4-AA-TOOS was used as the colorant.
(§4) Immediately after the preparation of the reagent, the reagent was preserved at 37° C. for 2 days and 9 days, and measurement of sensitivity of a blank which was distilled water and of hydrogen peroxide was performed.

[6] = Screening of stabilizer for colorant, DA67 (Example 13); format: physicochemical; conditions: DA-67, 660 nm, 37° C., additives at conc. (1%; IDA 1 mM; Zn, Al 0.1 mM; ferrocyanide 0.01 mM; sorbitol 5%; DMSO 10%)
Protocol: as §1, §2, §3, §4

[7] = Effect of catalase addition on reagent containing cyclodextrin and colorant (Example 14); format: physicochemical; conditions: for 500 μM hydrogen peroxide / Blank: DA-67, 2% 2-hydroxypropyl-β-cyclodextrin, 500 U/ml catalase, 37° C.
Protocol: as §3
The same operation method as in Example 13 was used. Immediately after the preparation of the reagent, the reagent was preserved at 37° C. for 2 days and 9 days, and measurement of sensitivity of a blank which was distilled water and of hydrogen peroxide was performed.

[8] = test sample 1% in R-1, 20 or more = excellent promoting effect

Sequence of hemoglobin (P69905 2-142 limits assumed): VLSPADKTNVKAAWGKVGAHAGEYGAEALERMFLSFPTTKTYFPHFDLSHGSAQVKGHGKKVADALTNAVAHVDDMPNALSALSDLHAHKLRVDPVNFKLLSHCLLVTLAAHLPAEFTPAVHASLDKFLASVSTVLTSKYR
Sequence of hemoglobin (P68871 2-147 limits assumed): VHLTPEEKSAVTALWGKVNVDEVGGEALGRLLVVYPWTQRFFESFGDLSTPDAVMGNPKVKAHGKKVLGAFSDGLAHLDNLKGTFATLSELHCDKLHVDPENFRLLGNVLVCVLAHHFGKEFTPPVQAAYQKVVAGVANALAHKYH

| Molecule | protease reaction promoting effect (in words) [2] | AH − AL [2, 8] [mAbs] | AH (absorbance from primary calibrator at level 4 (9.88%)) ([2]; test sample 1% in R-1) | AL (absorbance from primary calibrator at level 2 (5.38%)) ([2]; test sample 1% in R-1) | blank (distilled water) change in absorbance ([4]; 0 days) [Abs] | blank (distilled water) change in absorbance ([4]; 2 days) [Abs] | blank (distilled water) change in absorbance ([5]; 0 days) [Abs] | blank (distilled water) change in absorbance ([5]; 2 days) [Abs] | blank (distilled water) change in absorbance ([5]; 9 days) [Abs] | blank (distilled water) change in absorbance ([6]; 0 days) [Abs] | blank (distilled water) change in absorbance ([6]; 2 days) [Abs] | further results |
| --- | --- | --- | --- | --- | --- | --- | --- | --- | --- | --- | --- | --- |
| CCCCCCCCCCCCOCCOCCOCCOCCOCCOCCOCCOCCOCCOCCOCC(=O)O [AKYPO-RLM100, polyoxyethylene(10)lauryl ether acetic acid] | effects were observed | 29.1 |  |  |  |  |  |  |  |  |  | quantification of hemoglobin (in words) [1]: hemoglobin was able to be quantified |
| CCCCCCCCCCCC(=O)N(C)CCC(=O)[O-].[Na+] [Alaninate LN-30, sodium lauroyl methyl alaninate] | effects were observed | 26.7 | 92.3 | 65.6 |  |  |  |  |  |  |  | sensitivity of the GA measurement ([3]; control serum, no dilution, with protease reaction promoter (without: 32 mAbs)): 48 mAbs; increase of reaction rate ([3]; with vs without protease reaction promoter): 1.5 folds |
| O=C(O)CNCC(=O)O [IDA, imino-diacetic acid, reference compound] |  |  |  |  | 0.151 | 1.213 | −0.010 | 0.078 | 0.210 | 0.089 | 2.131 | AH (absorbance from primary calibrator at level 4 (9.88%)) ([2]; test sample 1 mM in R-1): 67.7; AH − AL ([2]; test sample 1 mM in R-1): 5.5 mAbs; AL (absorbance from primary calibrator at level 2 (5.38%)) ([2]; test sample 1 mM in R-1): 62.2 |
| CCCCCCCCCCCCCCCCCC(=O)N(C)CCS(=O)(=O)[O-].[Na+] [SMT, sodium N-stearoyl methyl taurinate] | effects were observed | 23.8 | 110.2 | 86.4 |  |  |  |  |  |  |  | quantification of hemoglobin (in words) [1]: hemoglobin was able to be quantified |
| OC[C@@H](O)[C@@H](O)[C@H](O)[C@@H](O)CO [Sorbitol, sorbitol, reference compound] |  |  |  |  | 0.151 | 1.225 | −0.010 | 0.080 | 0.230 | 0.093 | 2.545 | AH (absorbance from primary calibrator at level 4 (9.88%)) ([2]; test sample 5% in R-1): 68.3; AH − AL ([2]; test sample 5% in R-1): 6.5 mAbs; AL (absorbance from primary calibrator at level 2 (5.38%)) ([2]; test sample 5% in R-1): 61.8 |
| TritonX-100 [reference compound] |  | 5.2 | 44.9 | 39.7 | 0.146 | 1.135 | −0.005 | 0.080 | 0.221 | 0.085 | 2.100 |  |
| catalase |  |  |  |  |  |  |  |  |  |  |  | 500 μM hydrogen peroxide ([7]; 0 days): 0.510; Blank ([7]; 0 days): 0.057; 500 μM hydrogen peroxide ([7]; 2 days): 0.335; Blank ([7]; 2 days): 0.452; 500 μM hydrogen peroxide ([7]; 9 days): 0.304; Blank ([7]; 9 days): 1.052; effect of catalase addition on blank after preservation (in words) ([7]; Table 4): the blank after preservation significantly decreased |

Source: patent US8080423B2, “Reagent containing protease reaction promoter and/or colorant stabilizer” (Asahi Kasei Pharma Corporation, priority 2004, dated 2011)
